Source: patent EP3818977A1, “CD93 INHIBITORS FOR USE IN THE TREATMENT OF CANCER” (Universität Bern, priority 2019, dated 2021)

Key:
[1] = tested on: murine LSCs; assay: Colony assay of murine LSCs in methylcellulose; assay type: cell-based, mouse
Procedure: Colony assays from BM lin^- cells of CML and naive mice and CD34^+ stem/progenitor cells of human CML patients were performed as described before ([…] et al. 2015). For mouse colony assays 10^3 FACS-purified LSKs or LSCs were plated in methylcellulose and colonies were enumerated 7 days later. For serial re-plating experiments, 10^4 cells were collected from preceding colony assays and re-plated in methylcellulose. Colonies were enumerated 7 days later. For experiments using metoclopramide (Sigma), 10^3 FACS-purified murine LSCs or 2x10^3 human CD34^+ […] methylcellulose. Colony were enumerated 7 days and 14 days later, respectively. For re-plating assays 10^4or 2x10^4 cells isolated from primary mouse and human colony assays, respectively, were subsequently replated in methylcellulose in the absence of any compound. Colony were enumerated 7 days and 14 days later, respectively.

[2] = tested on: human CD34^+CD38^- LSCs; assay: Colony and re-plating assay of human CML stem/progenitor cells in semisolid culture; assay type: cell-based; details: 0.1µM, semisolid cultures, compared to control treatment
Procedure: Colony assays from BM lin^- cells of CML and naive mice and CD34^+ stem/progenitor cells of human CML patients were performed as described before (Riether et al. 2015).
For experiments using metoclopramide (Sigma), 10^3 FACS-purified murine LSCs or 2x10^3 human CD34^+ stem/progenitor cells were incubated overnight in 96 well V-bottom plates in the presence of 0.1 and 1µM metoclopramide or vehicle followed by plating methylcellulose. Colony were enumerated 7 days and 14 days later, respectively.
For re-plating assays 10^4or 2x10^4 cells isolated from primary mouse and human colony assays, respectively, were subsequently replated in methylcellulose in the absence of any compound. Colony were enumerated 7 days and 14 days later, respectively.

| Compound | colony formation of murine LSCs [1] | clonogenic potential of CD93-competent LSCs ([1]; in vitro, BL/6 LSCs cultured overnight with 1mM metoclopramide (Fig. 6H), colonies assessed 7 days later) | colony formation of CD93-deficient LSCs ([1]; in vitro, Cd93^-/- LSCs cultured overnight with 1mM metoclopramide (Fig. 6H), colonies assessed 7 days later) | colony formation [2] | re-plating capacity ([2]; re-plating in the absence of compound) |
| --- | --- | --- | --- | --- | --- |
| CCN(CC)CCNC(=O)c1cc(Cl)c(N)cc1OC [metoclopramide, Metoclopramide] | effective in reducing colony formation of murine LSCs | reduced clonogenic potential of CD93-competent LSCs to comparable levels as CD93-deficient LSCs | without further affecting colony formation of CD93-deficient LSCs | significantly impaired | significantly impaired |
| CC(CN1c2ccccc2Sc2ccccc21)N(C)C (stereo not drawn) [promethazine, Promethazine] | effective in reducing colony formation of murine LSCs |  |  |  |  |
